Here are results for ten molecules from patent EP0211584A1, “Antihypertensive agents” (AMERICAN HOME PRODUCTS CORPORATION, priority 1985, dated 1987).

Assay [1] relates to rabbit aortic smooth muscle. The assay can be described thus: Ca+2 antagonism: relaxation of KCl-depolarized rabbit aortic smooth muscle strips. As to conditions: Oryctolagus cuniculus, 20 min, compound 1 x 10^-5M; 100mM KCl contraction; 20 minutes after addition; mean of two experiments; read-out: P.R. (percent relaxation of aortic tissue). The procedure: The composition of PSS was as follows (mM): NaCl 112,KCI 5, NaHCO3 25 KH2PO4 1, MgSO4 1.2, CaCl2 2.5, dextrose 10. The lower end of each tissue strip was attached to a fixed post and the upper end to a Statham UC-4 transducer. Changes in force development were recorded on a Beckman Dynograph Polygraphic Recorder.
Following equilibration, the muscles were contracted in a depolarizing solution of PSS in which 100mM KCI was substituted for an equimolar concentration of NaCI. Following attainment of steady- state isometric force (20 min.), the test compound was added to afford a final concentration of 1 x 10^-5M. The inhibitory effect, expressed as percent relaxation, was determined from the mean of two experiments twenty minutes after the addition of the compound being tested.
(§1) The following examples illustrate the preparation of a representative number of compounds of this invention. After each example, the Ca+2 antagonist activity of the compound is presented in terms of percent relaxation of aortic tissue (P.R.) at 10-^5M concentration. […] Inhibition of super- precipitation (Antag. of Actin-Myosin interaction) is expressed as percent inhibition (mean ± standard error of the mean for at least 3 separate experiments) at a compound concentration. In the same manner, inhibition of myosin light chain phosphorylation (Antag. of MLCP) is expressed as a percent inhibition at a compound concentration. Similarly, the antihypertensive activity is reported in terms of millimetres mercury (mmHg) systolic blood pressure (B.P.) reduction at the stated time post 50 mg/kg oral dosing or other dosing as indicated.

The test system of assay [2] is spontaneously hypertensive rats. The assay can be described thus: Hypotensive effect: systolic blood pressure of spontaneously hypertensive rats. The format is in vivo. The conditions noted are these: mmHg per method. The method, then:
The hypotensive in vivo effect of the compounds of this invention was determined by measuring changes in the systolic blood pressure of spontaneously hypertensive rats with a Decker Caudal Plethysmograph. The compound being tested was administered to a group of 4 rats and their systolic pressure was determined prior to and at 1.5 and 4 hours after compound administration. Initial testing was done by oral administration of the compound. Results (mmHg) are expressed as decreases in systolic blood pressure.
as §1

The test system of assay [3] is isolated paced intact rabbit atria. Put plainly: Cardiac depressant (negative inotropic) effect in isolated paced rabbit atria. The conditions noted are these: Oryctolagus cuniculus; rabbit atria paced at 3Hz, 30°C, cumulative dosing; read-out: IC25 (concentration which produces 25% inhibition of isometric force). The procedure: The potential for detrimental cardiac depressant (negative inotropic) effects of the compounds of this invention was assessed in isolated paced intact rabbit atria. […] Muscles (N=5-9/compound) were stimulated at a frequency of 3Hz with a WPI stimulator for a 60 minute equilibration period. Changes in isometric force were recorded as described for the aortic smooth muscle experiments, supra. […]

Assay [4] has as its system arterial actin-myosin interactions. The assay can be described thus: Inhibition of superprecipitation (antagonism of actin-myosin interaction), Silver et al. The format is biochemical. The conditions noted are these: six minute time-point. The method, then:
. The data reported herein was obtained at a six minute time-point rather than the 1.5, 5 and 12 minute time points indicated in the superprecipita- tion assay of the Silver et al paper.
as §1

The target in assay [5] is Ca^+2-calmodulin dependent myosin light chain phosphorylation (Bos taurus, UniProt Q28824). The assay can be described thus: Inhibition of myosin light chain phosphorylation (MLCP), Silver et al. Format: biochemical. The conditions noted are these: read-out: Antag. of MLCP (percent inhibition of myosin light chain phosphorylation). The method, then:
The data reported herein was obtained at a six minute time-point rather than the 1.5, 5 and 12 minute time points indicated in the superprecipita- tion assay of the Silver et al paper.
as §1

Where [6] appears, read: dose 50mg/kg oral, at 1.5 hours.
The mark [7] stands for this setting: dose 25mg/kg oral, at 1.5 hours.

In the case of `CC1=C(C(=O)OC(C)COc2ccccc2)C(c2c(F)c(F)c(F)c(F)c2F)C2=C(CNCC2=O)N1` (stereo not shown) [Example 13, 1,4,5,6,7,8-Hexahydro-2-methyl-5-oxo-4-(pentafluorophenyl)-1,7-naphthylidine-3-carboxylic acid 1-methvl-2-ahenoxvethvl ester], in assay [1], the inhibition at 10 µM turned out to be 46%. Besides, the “B.P. (systolic blood pressure reduction)” value in assay [2] (setting [6]) is reported as -35 mm; in assay [2] (dose 50mg/kg oral, at 4 hours) it was -60 mm. Further, the IC25 in assay [3] came out at 10 µM. The “Antag. of Actin-Myosin (percent inhibition of superprecipitation)” value is 61% in assay [4] (25µM) and 78% in assay [4] (100µM). In addition, the inhibition at 25 µM in assay [5] worked out at 58%. For the same molecule, the inhibition at 100 µM in assay [5] stood at 70%.
Take `CC1=C(C(=O)OCCOc2ccccc2)C(c2cccc(Cl)c2C)C2=C(CNCC2=O)N1` (stereo not shown) [Example 17, 4-(3-Chloro-2-methylphenyl)-1,4,5,6,7,8-hexahydro-2-methyl-5-oxo-1,7-naphthyridine-3-carboxylic acid 2-phenoxyethyl ester]: the inhibition at 10 µM in assay [1] was determined as 74%; in assay [5] (10µM), 11%. For the same molecule, the “B.P. (systolic blood pressure reduction)” value in assay [2] (setting [7]) is -10 mm; in assay [2] (dose 25mg/kg oral, at 4 hours), -45 mm. Further, in assay [3], the IC25 was 1 µM. Besides, the “Antag. of Actin-Myosin (percent inhibition of superprecipitation)” value came to 22% in assay [4] (10µM), 44±2% in assay [4] (25µM), 64±3% in assay [4] (50µM) and 71±2% in assay [4] (100µM). Besides, in assay [5], the inhibition at 25 µM amounted to 39 ± 2%. Moreover, in assay [5], the inhibition at 50 µM was determined as 59 ± 3%. In addition, in assay [5], the inhibition at 100 µM stood at 67 ± 2%.
In the case of `CO[C@@H](COC(=O)C1=C(C)NC2=C(C(=O)CNC2)C1c1c(F)c(F)c(F)c(F)c1F)c1ccccc1` (stereo partly drawn) [Example 6, 1,4,5,6,7,8,-Hexahydro-2-methyl-5-oxo-4-(pentafluorophenyl)-1,7-naphthyridine-3-carboxylic acid (R)-2-methoxy-2-phenylethyl ester], in assay [1], the inhibition at 10 µM worked out at 71%. For the same molecule, the “B.P. (systolic blood pressure reduction)” value is -56 mm in assay [2] (dose 10mg/kg oral, at 1.5 hours) and -49 mm in assay [2] (dose 10mg/kg oral, at 4 hours). In addition, the IC25 in assay [3] was determined as 0.6 µM. Also, the “Antag. of Actin-Myosin (percent inhibition of superprecipitation)” value is given as 64% in assay [4] (50µM) and 74% in assay [4] (100µM). Further, in assay [5], the inhibition at 50 µM stood at 56%. Further, the inhibition at 100 µM in assay [5] amounted to 70%.
Regarding `CC1=C(C(=O)OCC2COc3ccccc3O2)C(c2c(F)c(F)c(F)c(F)c2F)C2=C(CNCC2=O)N1` (stereo not shown) [Example 14, 1,4,5,6,7,8-Hexahydro-2-methyl-5-oxo-4-(pentafluorophenyl)-1,7-naphthyridine-3-carboxylic acid 2.3-dihvdro-1.4-benzodioxin-2-vimethvl ester], in assay [1], the inhibition at 10 µM amounted to 62%. The “B.P. (systolic blood pressure reduction)” value in assay [2] (setting [6]) is recorded as -46 mm; in assay [2] (dose 50mg/kg oral, at 4 hours), -42 mm. Further, in assay [3], the IC25 turned out to be 3.2 µM. Besides, the “Antag. of Actin-Myosin (percent inhibition of superprecipitation)” value came to 65% in assay [4] (25µM) and 80% in assay [4] (100µM). In addition, in assay [5], the inhibition at 25 µM came to 59%. Further, in assay [5], the inhibition at 100 µM amounted to 76%.
Regarding `CC1=C(C(=O)OCCOc2ccccc2)C(c2c(F)c(F)c(F)c(F)c2F)C2=C(CNCC2=O)N1` (single isomer, unassigned; (-)) [Example 3, (-)-1,4,5,6,7,8-Hexahydro-2-methyl-5-oxo-4-(pentafluorophenyl)-1,7-naphthridine-3-carboxylic acid 2-phenoxyethyl ester], the inhibition at 10 µM in assay [1] was found to be 56%. In addition, the “B.P. (systolic blood pressure reduction)” value in assay [2] (setting [7]) is -6 mm; in assay [2] (dose 25mg/kg oral, at 4 hours) it was -14 mm. In addition, in assay [3], the IC25 is > 10 µM. Also, the “Antag. of Actin-Myosin (percent inhibition of superprecipitation)” value was 65% in assay [4] (50µM) and 76% in assay [4] (100µM). Besides, the inhibition at 50 µM in assay [5] was 57%. Moreover, in assay [5], the inhibition at 100 µM worked out at 70%.
As to `CC1=C(C(=O)OCCOc2ccccc2)C(c2cccc(Cl)c2Cl)C2=C(CNCC2=O)N1` (stereo not shown) [Example 19, 4-(2,3-Dichlorophenyl)-1,4,5,6,7,8-hexahydro-2-methyl-5-oxo-1,7-naphthyridine-3-carboxylic acid 2-phenoxyethylester], the inhibition at 10 µM in assay [1] came out at 62%. Moreover, the “B.P. (systolic blood pressure reduction)” value in assay [2] (setting [6]) is -50 mm; in assay [2] (dose 50mg/kg oral, at 4 hours), -73 mm. The IC25 in assay [3] stood at 2.5 µM. Besides, the “Antag. of Actin-Myosin (percent inhibition of superprecipitation)” value in assay [4] (100µM) amounted to 71%. Besides, the inhibition at 100 µM in assay [5] came to 69%.
For the molecule `COC(COC(=O)C1=C(C)NC2=C(C(=O)CNC2)C1c1cccc(Cl)c1Cl)c1ccccc1` (stereo not shown) [Example 1, 4-(2,3-Dichloroohenyl)-1,4,5,6,7,8-hexahydro-2-methyl-5-oxo-1,7-naphthyridine-3-carboxylic acid 2-methoxy-2-phenylethyl ester], in assay [1], the inhibition at 10 µM worked out at 32%. The “B.P. (systolic blood pressure reduction)” value in assay [2] (setting [6]) is listed as -53 mm; in assay [2] (dose 50mg/kg oral, at 4 hours), -30 mm. The IC25 in assay [3] is 10 µM. Moreover, the “Antag. of Actin-Myosin (percent inhibition of superprecipitation)” value was 43± 2% in assay [4] (25µM), 75±3% in assay [4] (50µM) and 83± 3% in assay [4] (100µM). In addition, the inhibition at 25 µM in assay [5] stood at 38 ± 3%. In addition, the inhibition at 50 µM in assay [5] turned out to be 66%. For the same molecule, the inhibition at 100 µM in assay [5] came to 76 ± 2%.
As to `COC(COC(=O)C1=C(C)NC2=C(C(=O)CNC2)C1c1c(F)c(F)c(F)c(F)c1F)c1ccccc1` (stereo not shown) [Example 5, 1,4,5,6,7,8-Hexahydro-2-methyl-5-oxo-4-(pentafluorophenyl)-1,7-naphthyridine-3-carboxylic acid 2-methoxy-2-phenylethyl ester], the inhibition at 10 µM in assay [1] is 71%. Besides, the IC25 in assay [3] was 10 µM. For the same molecule, the “Antag. of Actin-Myosin (percent inhibition of superprecipitation)” value in assay [4] (25µM) came out at 20±5%; in assay [4] (50µM) it was 50±5%; in assay [4] (100µM) it was 75±4%. For the same molecule, the inhibition at 25 µM in assay [5] came to 21 ± 3%. For the same molecule, the inhibition at 50 µM in assay [5] was 48 ± 2%. In addition, the inhibition at 100 µM in assay [5] stood at 70 ± 3%.
Consider `CC1=C(C(=O)OCCOc2ccccc2)C(c2ccccc2C)C2=C(CNCC2=O)N1` (stereo not shown) [Example 15, 1,4,5,6,7,8-Hexahydro-2-methyl-4-(2-methylphenyl)-5-oxo-1,7-naphthyridine-3-carboxylic arid 2-phenoxyethyl ester], for which the inhibition at 10 µM in assay [1] turned out to be 63%. The “B.P. (systolic blood pressure reduction)” value in assay [2] (setting [7]) is recorded as -29 mm; in assay [2] (dose 25mg/kg oral, at 4 hours), -39 mm. Further, the IC25 in assay [3] was 4.7 µM. Further, the “Antag. of Actin-Myosin (percent inhibition of superprecipitation)” value in assay [4] (100µM) turned out to be 66±5%.
As for `CC1=C(C(=O)OCCOc2ccccc2)C(c2c(F)c(F)c(F)c(F)c2F)C2=C(CNCC2=O)N1` (single isomer, unassigned) [Example 4, (+ )-1,4,5,6,7,8-Hexahydro-2-methyl-5-oxo-4-(pentafluorophenyl)-1,7-naphthyridine-3-carboxylic acid 2-phenoxyethyl ester], the inhibition at 10 µM in assay [1] is 61%. Further, the IC25 in assay [3] was 0.8 µM. Also, the “Antag. of Actin-Myosin (percent inhibition of superprecipitation)” value in assay [4] (50µM) is on record as 38%. Also, the “Antag. of Actin-Myosin (percent inhibition of superprecipitation)” value in assay [4] (100µM) was determined as 71%. For the same molecule, in assay [5], the inhibition at 50 µM came out at 37% and the inhibition at 100 µM came to 67%.
